Laboratory results taken from patent publication US20070135403A1, “Substituted 2,5-diaminomethyl-1H-pyrrole compounds” (Gruenenthal GmbH, priority 2004, published 2007).
Where a name gives a salt, the structure may show the parent alone.

Key:
[1] = biological target: T1, NA transporter (NA uptake) (Rattus norvegicus, UniProt Q63380); assay: Noradrenalin (NA) uptake inhibition in rat brain synaptosomes (hypothalamus); format: biochemical; conditions: 10 μM inhibition
T1 construct: from tissue; host or cells: rat brain synaptosomes (P2 fraction) from hypothalamus
T1 sequence (Q63380 1-617): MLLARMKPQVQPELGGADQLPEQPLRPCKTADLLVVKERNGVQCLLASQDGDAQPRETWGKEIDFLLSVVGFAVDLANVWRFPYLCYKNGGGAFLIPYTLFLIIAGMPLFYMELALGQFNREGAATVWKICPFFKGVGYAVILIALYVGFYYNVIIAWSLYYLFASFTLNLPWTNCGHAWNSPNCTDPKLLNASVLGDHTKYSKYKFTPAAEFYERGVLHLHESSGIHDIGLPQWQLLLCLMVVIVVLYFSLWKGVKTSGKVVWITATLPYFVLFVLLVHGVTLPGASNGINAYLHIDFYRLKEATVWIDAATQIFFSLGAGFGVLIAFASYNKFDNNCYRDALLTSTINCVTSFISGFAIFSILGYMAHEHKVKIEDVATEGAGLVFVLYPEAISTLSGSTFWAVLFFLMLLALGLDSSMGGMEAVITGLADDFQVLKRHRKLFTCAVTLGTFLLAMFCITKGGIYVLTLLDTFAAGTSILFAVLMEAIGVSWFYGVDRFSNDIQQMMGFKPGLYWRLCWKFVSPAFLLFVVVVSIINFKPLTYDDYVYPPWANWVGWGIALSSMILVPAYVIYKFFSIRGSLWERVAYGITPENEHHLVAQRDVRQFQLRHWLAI
Description: (§1) b) Method For Determining Noradrenalin and 5-HT Uptake Inhibition
(§2) Synaptosomes from rat brain regions are freshly isolated for in vitro studies, as described in the publication “The isolation of nerve endings from brain” by E. G. Gray and V. P. Whittaker, J. Anatomy 96, pages 79-88, 1962. The corresponding literature description is hereby introduced as a reference and is deemed to be part of the disclosure.
(§3) The tissue (hypothalamus for the determination of noradrenalin uptake inhibition and medulla and pons for the determination of 5-HT uptake inhibition) is homogenised in ice-cooled 0.32 M sucrose (100 mg of tissue/1 ml) in a glass homogeniser with Teflon pestle using five complete up and down strokes at 840 revolutions/minute.
(§4) The homogenate is centrifuged at 4° C. for 10 minutes at 1000 g. After subsequent centrifugation at 17000 g for 55 minutes, the synaptosomes (P2 fraction) are obtained, which are resuspended in 0.32 M glucose (0.5 ml/100 mg of original weight).
(§5) The particular uptake is measured in a 96-well microtitre plate. The volume is 250 μl and the incubation proceeds at room temperature (approx. 20-25° C.) under an O2 atmosphere.
(§6) The incubation time is 7.5 minutes for [^3H]—NA and 5 minutes for [^3H]-5-HT. The 96 samples are then filtered through a Unifilter GF/B® microtitre plate (Packard) and washed with […] of incubated buffer using a “Brabdel MPXRI-96T Cell-Harvester”. The Unifilter GF/B plate is dried for 1 hour at 55° C. The plate is then sealed with a Back seal® (Packard) and 35 μl of scintillation fluid are added per well (Ultima Gold®, Packard). After sealing with a top seal® (Packard) and establishing an equilibrium (around 5 hours), radioactivity is determined in a “Trilux 1450 Microbeta” (Wallac).
(§7) The quantity of protein used in the above determination corresponds to the values known from the literature, as for example described in “Protein measurement with the folin phenol reagent”, Lowry et al., J. Biol. Chem., 193, 265-275, 1951. A detailed description of the method may additionally be found in the literature, for example in M.Ch. Frink, H.-H. Hennies, W. Engelberger, M. Haurand and B. Wilffert (1996) Arzneim.-Forsch./Drug Res. 46 (III), 11, 1029-1036. The disclosures of these two articles are hereby incorporated by reference.
(§8) The following characteristics were determined for the NA or 5-HT transporter: • NA uptake: Km=0.32±0.11 μM • 5HT uptake: Km=0.084±0.011 μM

[2] = biological target: T2, 5-HT transporter (5-HT uptake) (Rattus norvegicus, UniProt P31652); assay: 5-HT uptake inhibition in rat brain synaptosomes (medulla and pons); format: biochemical; conditions: % inhibition
T2 construct: from tissue; host or cells: rat brain synaptosomes (P2 fraction) from medulla and pons
T2 sequence (P31652 whole entry): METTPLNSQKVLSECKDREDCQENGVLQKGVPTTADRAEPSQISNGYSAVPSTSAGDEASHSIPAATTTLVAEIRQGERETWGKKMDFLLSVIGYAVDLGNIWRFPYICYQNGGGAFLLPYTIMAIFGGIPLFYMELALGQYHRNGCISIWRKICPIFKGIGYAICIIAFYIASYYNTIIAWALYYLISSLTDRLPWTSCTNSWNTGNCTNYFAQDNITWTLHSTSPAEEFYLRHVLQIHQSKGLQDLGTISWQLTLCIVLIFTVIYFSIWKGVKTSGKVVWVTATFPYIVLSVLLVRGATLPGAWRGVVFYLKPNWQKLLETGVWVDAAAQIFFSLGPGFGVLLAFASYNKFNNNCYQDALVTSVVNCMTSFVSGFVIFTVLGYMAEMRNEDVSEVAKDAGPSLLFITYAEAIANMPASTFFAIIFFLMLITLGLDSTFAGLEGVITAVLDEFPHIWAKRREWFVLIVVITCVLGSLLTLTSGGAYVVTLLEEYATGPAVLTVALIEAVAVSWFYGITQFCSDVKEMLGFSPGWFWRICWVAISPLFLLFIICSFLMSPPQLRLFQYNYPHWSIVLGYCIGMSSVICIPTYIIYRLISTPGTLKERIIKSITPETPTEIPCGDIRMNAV
Description: as §1, §2, §3, §4, §5, §6, §7, §8

CN(Cc1ccccc1)Cc1ccc(CN2CCCCCC2)n1C [Example 8, (5-Azepan-1-ylmethyl-1-methyl-1H-pyrrol-2-ylmethyl)-benzyl-methyl-amine]
inhibition at 10 µM [1]: 62%

Benzyl-methyl-[1-methyl-5-(4-phenyl-piperidin-1-ylmethyl)-1H-pyrrol-2-ylmethyl]-amine [Example 10]
NA uptake inhibition [1]: 53

CN(Cc1ccccc1)Cc1ccc(CN2CCC(Cc3ccccc3)CC2)n1C [Example 6, Benzyl-[5-(4-benzyl-piperidin-1-ylmethyl)-1-methyl-1H-pyrrol-2-ylmethyl]-methyl-amine]
inhibition at 10 µM [2]: 61%
inhibition at 10 µM [1]: 100%

CC1CCN(Cc2ccc(CN3CCCCC3)n2C)CC1 [Example 2, 1-(1-Methyl-5-piperidin-1-ylmethyl-1H-pyrrol-2-ylmethyl)-4-methylpiperidine]
inhibition at 10 µM [2]: 72%

Cn1c(CN2CCOCC2)ccc1CN1CCC(Cc2ccccc2)CC1 [Example 7, 4-[5-(4-Benzyl-piperidin-1-ylmethyl)-1-methyl-1H-pyrrol-2-ylmethyl]-morpholine]
inhibition at 10 µM [2]: 55%
inhibition at 10 µM [1]: 100%

CC1CCCCN1Cc1ccc(CN(C)Cc2ccccc2)n1C (stereo not drawn) [Example 9, Benzyl-methyl-[1-methyl-5-(2-methyl-piperidin-1-ylmethyl)-1H-pyrrol-2-ylmethyl]-amine]
inhibition at 10 µM [1]: 57%

Cn1c(CN2CCCCC2)ccc1CN1CCN(c2ccccc2)CC1 [Example 4, 1-(1-Methyl-5-piperidin-1-ylmethyl-1H-pyrrol-2-ylmethyl)-4-phenyl-piperazine]
inhibition at 10 µM [2]: 48%
inhibition at 10 µM [1]: 77%

CCN(CC)Cc1ccc(CN2CCCCC2)n1C [Example 1, Diethyl-(1-methyl-5-piperidin-1-ylmethyl-1H-pyrrol-2-ylmethyl)-amine dihydrochloride]
inhibition at 10 µM [2]: 34%

4-[1-Methyl-5-(4-phenyl-piperidin-1-ylmethyl)-1H-pyrrol-2-ylmethyl]-morpholine [Example 3]
5HT uptake inhibition ([2]; 10 μM): 59%
NA uptake inhibition [1]: 71

Cn1c(CN2CCCCCC2)ccc1CN1CCC(Cc2ccccc2)CC1 [Example 5, 1-[5-(4-Benzyl-piperidin-1-ylmethyl)-1-methyl-1H-pyrrol-2-ylmethyl]-azepane]
inhibition at 10 µM [2]: 64%
inhibition at 10 µM [1]: 100%
